Source: patent US10233173B2, “Substituted 1,2,3-triazoles as NR2B-selective NMDA modulators” (JANSSEN PHARMACEUTICA NV, priority 2016, dated 2019)

Target: human GluN1/GluN2B NMDA receptors (Homo sapiens, UniProt Q05586+Q13224)
Experiment: Cell-based calcium flux (FLIPR) assay on cloned human NR1/NR2B ion channels expressed in mammalian cells
Conditions: standard assay
Method in brief: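 Calcium influx followed by FLIPR fluorescence after 5 min compound exposure and a further 5 min co-agonist challenge: 10 μM glycine with glutamate at ~EC80 (standard) or EC40 (HTS).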

[1] = glutamate at ~EC80, FLIPR calcium flux
[2] = human GluN1/GluN2B, calcium flux (FLIPR), glutamate ~EC80

human GluN1/GluN2B NMDA receptors, sequence (Q13224 27-1484, other chains not shown): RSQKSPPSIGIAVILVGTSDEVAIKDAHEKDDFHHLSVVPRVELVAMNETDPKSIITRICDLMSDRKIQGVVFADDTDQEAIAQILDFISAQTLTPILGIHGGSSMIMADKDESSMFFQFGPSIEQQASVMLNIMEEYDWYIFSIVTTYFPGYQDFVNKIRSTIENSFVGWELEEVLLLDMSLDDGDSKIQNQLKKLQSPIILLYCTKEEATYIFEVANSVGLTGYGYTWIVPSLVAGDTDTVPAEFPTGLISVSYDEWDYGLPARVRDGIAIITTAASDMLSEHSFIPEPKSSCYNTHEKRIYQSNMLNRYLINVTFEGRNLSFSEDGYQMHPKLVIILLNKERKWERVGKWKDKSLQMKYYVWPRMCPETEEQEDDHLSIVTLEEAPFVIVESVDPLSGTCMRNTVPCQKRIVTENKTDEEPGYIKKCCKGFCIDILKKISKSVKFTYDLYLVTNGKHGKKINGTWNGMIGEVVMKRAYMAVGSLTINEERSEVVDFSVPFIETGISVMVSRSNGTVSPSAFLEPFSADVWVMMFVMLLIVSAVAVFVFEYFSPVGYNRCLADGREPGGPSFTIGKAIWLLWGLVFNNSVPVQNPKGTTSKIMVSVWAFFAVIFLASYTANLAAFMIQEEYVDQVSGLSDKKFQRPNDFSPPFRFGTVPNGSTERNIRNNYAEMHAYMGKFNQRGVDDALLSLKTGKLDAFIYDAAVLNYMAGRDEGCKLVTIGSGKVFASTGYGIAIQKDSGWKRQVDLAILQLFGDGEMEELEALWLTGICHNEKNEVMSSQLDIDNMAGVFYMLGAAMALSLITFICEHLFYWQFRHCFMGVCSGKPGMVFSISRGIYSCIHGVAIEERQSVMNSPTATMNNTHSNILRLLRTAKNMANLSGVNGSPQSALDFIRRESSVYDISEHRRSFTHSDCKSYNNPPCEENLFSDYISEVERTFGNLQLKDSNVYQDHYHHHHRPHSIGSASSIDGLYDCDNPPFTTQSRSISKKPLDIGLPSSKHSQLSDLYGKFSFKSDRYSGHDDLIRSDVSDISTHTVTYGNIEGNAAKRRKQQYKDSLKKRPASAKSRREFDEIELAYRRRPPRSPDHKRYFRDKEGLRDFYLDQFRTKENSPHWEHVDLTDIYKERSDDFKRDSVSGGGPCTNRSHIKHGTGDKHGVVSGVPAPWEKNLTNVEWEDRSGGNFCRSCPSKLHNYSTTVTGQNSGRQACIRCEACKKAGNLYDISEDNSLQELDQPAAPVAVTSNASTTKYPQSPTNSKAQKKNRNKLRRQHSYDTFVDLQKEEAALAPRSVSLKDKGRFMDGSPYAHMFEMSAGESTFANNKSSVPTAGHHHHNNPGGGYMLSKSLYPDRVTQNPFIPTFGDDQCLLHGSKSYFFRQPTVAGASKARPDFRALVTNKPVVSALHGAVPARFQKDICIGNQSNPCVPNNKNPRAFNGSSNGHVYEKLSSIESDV

| SMILES | IC50 [1] | IC50 [2] |
| --- | --- | --- |
| Cc1cnc(OCc2cn(-c3ccc(Cl)c(C(F)F)c3)nn2)nc1N [Example 632, 2-[[1-[4-chloro-3-(difluoromethyl)phenyl]triazol-4-yl]methoxy]-5-methyl-pyrimidin-4-amine] | 0.004 µM |  |
| CCc1cnc(OCc2cn(-c3ccc(C)cc3)nn2)nc1 [Example 261, 5-Ethyl-2-[[1-(p-tolyl)triazol-4-yl]methoxy]pyrimidine] |  | 0.093 µM |
| CNc1nc(OCc2cn(-c3ccc(F)c(C(F)F)c3)nn2)ncc1F [Example 414, 2-[[1-[3-(Difluoromethyl)-4-fluoro-phenyl]triazol-4-yl]methoxy]-5-fluoro-N-methyl-pyrimidin-4-amine] | 0.122 µM |  |
| CCNc1ccnc(OCc2cn(-c3ccc(F)c(OC(F)F)c3)nn2)n1 [Example 504, 2-((1-(3-(Difluoromethoxy)-4-fluorophenyl)-1H-1,2,3-triazol-4-yl)methoxy)-N-ethylpyrimidin-4-amine] | 0.007 µM |  |
| Cc1c(F)ccc(-n2cc(COc3ncc(C(C)C)cn3)nn2)c1F [Example 639, 2-[[1-(2,4-Difluoro-3-methyl-phenyl)triazol-4-yl]methoxy]-5-isopropyl-pyrimidine] | 0.052 µM |  |
| Cc1cnc(OCc2cn(-c3ccc(Br)c(C)n3)nn2)nc1 [Example 94, 2-[[1-(5-Bromo-6-methyl-2-pyridyl)triazol-4-yl]methoxy]-5-methyl-pyrimidine] |  | 2.91 µM |
| Cc1cnc(OC(C)c2cn(-c3ccc(Cl)c(OC(F)F)c3)nn2)nc1 (single isomer, unassigned) [Example 57, (R*)-2-[1-[1-[4-Chloro-3-(difluoromethoxy)phenyl]triazol-4-yl]ethoxy]-5-methyl-pyrimidine] |  | 0.338 µM |
| COCc1ccnc(OCc2cn(-c3ccc(C)c(OC(F)F)c3)nn2)n1 [Example 527, 2-[[1-[3-(Difluoromethoxy)-4-methyl-phenyl]triazol-4-yl]methoxy]-4-(methoxymethyl)pyrimidine] | 0.132 µM |  |
| CC(C)(O)c1cnc(OCc2cn(-c3cc(F)ccc3F)nn2)nc1 [Example 604, 2-[2-[[1-(2,5-Difluorophenyl)triazol-4-yl]methoxy]pyrimidin-5-yl]propan-2-ol] | 79.7 µM |  |
| Fc1ccc(-n2cc(COc3ncccn3)nn2)cc1Cl [Example 619, 2-[[1-(3-Chloro-4-fluoro-phenyl)triazol-4-yl]methoxy]pyrimidine] | 0.217 µM |  |
| Cc1cnc(OCc2cn(-c3cccc(C(F)(F)F)c3)nn2)nc1 [Example 286, 5-Methyl-2-[[1-[3-(trifluoromethyl)phenyl]triazol-4-yl]methoxy]pyrimidine] |  | 0.012 µM |
| CCc1cnc(OCc2cn(-c3ccc(F)c(C)c3F)nn2)nc1 [Example 39, 2-[[1-(2,4-Difluoro-3-methyl-phenyl)triazol-4-yl]methoxy]-5-ethyl-pyrimidine] |  | 0.015 µM |
| CC1(F)CN(c2cnc(OCc3cn(-c4ccc(F)c(C(F)F)c4)nn3)nc2)C1 [Example 420, 2-((1-(3-(Difluoromethyl)-4-fluorophenyl)-1H-1,2,3-triazol-4-yl)methoxy)-5-(3-fluoro-3-methylazetidin-1-yl)pyrimidine] | 0.26 µM |  |
| Fc1cnc(OCc2cn(-c3ccc(Cl)c(OC(F)F)c3)nn2)nc1NCC(F)F [Example 388, 2-[[1-[4-Chloro-3-(difluoromethoxy)phenyl]triazol-4-yl]methoxy]-N-(2,2-difluoroethyl)-5-fluoro-pyrimidin-4-amine] |  | 0.842 µM |
| Fc1cnc(OCc2cn(-c3cccc(F)c3F)nn2)nc1 [Example 606, 2-[[1-(2,3-Difluorophenyl)triazol-4-yl]methoxy]-5-fluoro-pyrimidine] | 17.5 µM |  |
| CCc1cnc(NCc2cn(-c3ccc(F)c(C(F)F)c3)nn2)nc1 [Example 216, N-((1-(3-(Difluoromethyl)-4-fluorophenyl)-1H-1,2,3-triazol-4-yl)methyl)-5-ethylpyrimidin-2-amine] |  | 0.026 µM |
| Cc1cnc(OCc2cn(-c3ccc(F)c(F)c3)nn2)nc1 [Example 601, 2-[[1-(3,4-Difluorophenyl)triazol-4-yl]methoxy]-5-methyl-pyrimidine] | 0.048 µM |  |
| COc1cnc(OCc2cn(-c3ccc(Cl)c(OC)c3)nn2)nc1 [Example 87] |  | 0.012 µM |
| Fc1ccc(-n2cc(COc3ncc(N4CCC4)cn3)nn2)cc1C(F)F [Example 417, 5-(Azetidin-1-yl)-2-((1-(3-(difluoromethyl)-4-fluorophenyl)-1H-1,2,3-triazol-4-yl)methoxy)pyrimidine] | 0.006 µM |  |
| Cc1cnc(OCc2cn(-c3ccc(OC(F)F)cc3)nn2)nc1 [Example 333, 2-[[1-[4-(Difluoromethoxy)phenyl]triazol-4-yl]methoxy]-5-methyl-pyrimidine] |  | 0.087 µM |
| CC(C)c1ccnc(OCc2cn(-c3ccc(Cl)c(C(F)F)c3)nn2)n1 [Example 623, 2-[[1-[4-Chloro-3-(difluoromethyl)phenyl]triazol-4-yl]methoxy]-4-isopropyl-pyrimidine] | 0.129 µM |  |

| SMILES | IC50 [1] | IC50 [2] |
| --- | --- | --- |
| CC(F)(F)c1cccc(-n2cc(COc3ncc(C4CC4)cn3)nn2)c1 [Example 319, 5-Cyclopropyl-2-[[1-[3-(1,1-difluoroethyl)phenyl]triazol-4-yl]methoxy]pyrimidine] |  | 0.015 µM |
| CCc1cnc(OCc2cn(-c3ccnc(Br)c3)nn2)nc1 [Example 665, 2-[[1-(2-Bromo-4-pyridyl)triazol-4-yl]methoxy]-5-ethyl-pyrimidine] | 0.261 µM |  |
| Fc1cccc(-n2cc(COc3ncc(Cl)cn3)nn2)c1F [Example 605, 5-Chloro-2-[[1-(2,3-difluorophenyl)triazol-4-yl]methoxy]pyrimidine] | 4.36 µM |  |
| Fc1c(Cl)cccc1-n1cc(COc2ncc(Cl)cn2)nn1 [Example 612, 5-Chloro-2-[[1-(3-chloro-2-fluoro-phenyl)triazol-4-yl]methoxy]pyrimidine] | 1.74 µM |  |
| Cc1cnc(OCc2cn(-c3ccc(Cl)c(OC(F)F)c3)nn2)nc1 [Example 22, 2-[[1-[4-Chloro-3-(difluoromethoxy)phenyl]triazol-4-yl]methoxy]-5-methyl-pyrimidine] |  | 0.002 µM |
| Cc1cnc(OCc2cn(-c3ccc(F)c(Cl)c3)nn2)nc1 [Example 620, 2-[[1-(3-Chloro-4-fluoro-phenyl)triazol-4-yl]methoxy]-5-methyl-pyrimidine] | 0.008 µM |  |
| CNc1nc(OCc2cn(-c3ccc(F)c(OC(F)F)c3)nn2)ncc1C [Example 515, 2-[[1-[3-(Difluoromethoxy)-4-fluoro-phenyl]triazol-4-yl]methoxy]-N,5-dimethyl-pyrimidin-4-amine] | 0.099 µM |  |
| Cc1cc(-n2cc(COc3ncc(OCCF)cn3)nn2)ccc1F [Example 483, 5-(2-Fluoroethoxy)-2-[[1-(4-fluoro-3-methyl-phenyl)triazol-4-yl]methoxy]pyrimidine] | 0.007 µM |  |
| CCc1cnc(OCc2cn(-c3ccc(F)c(C(F)(F)F)c3)nn2)nc1 [Example 72, 5-Ethyl-2-[[1-[4-fluoro-3-(trifluoromethyl)phenyl]triazol-4-yl]methoxy]pyrimidine] |  | 0.01 µM |
| COc1cnc(OCc2cn(-c3ccc(F)c(CCCCl)c3)nn2)nc1 [Example 195, 2-[[1-[3-(3-Chloropropyl)-4-fluoro-phenyl]triazol-4-yl]methoxy]-5-methoxy-pyrimidine] |  | 0.136 µM |
| CC(F)(F)c1cccc(-n2cc(COc3ncc(Br)cn3)nn2)c1 [Example 293, 5-Bromo-2-[[1-[3-(1,1-difluoroethyl)phenyl]triazol-4-yl]methoxy]pyrimidine] |  | 0.039 µM |
| Cc1cnc(OCc2cn(-c3cccc(OC(F)(F)F)c3)nn2)nc1N [Example 343, 5-Methyl-2-[[1-[3-(trifluoromethoxy)phenyl]triazol-4-yl]methoxy]pyrimidin-4-amine] |  | 0.04 µM |
| Cc1c(F)cccc1-n1cc(COc2ncc(C(C)(C)O)cn2)nn1 [Example 466, 2-[2-[[1-(3-Fluoro-2-methyl-phenyl)triazol-4-yl]methoxy]pyrimidin-5-yl]propan-2-ol] | 7.01 µM |  |
| FC(F)c1ccnc(OCc2cn(-c3ccc4c(c3)CCC4)nn2)n1 [Example 370, 4-(Difluoromethyl)-2-[(1-indan-5-yltriazol-4-yl)methoxy]pyrimidine] |  | 0.397 µM |
| CC(F)(F)c1cc(-n2cc(COc3ncc(C(C)(O)C(F)(F)F)cn3)nn2)ccc1F (racemic) [Example 565, (R/S)-2-[2-[[1-[3-(1,1-Difluoroethyl)-4-fluoro-phenyl]triazol-4-yl]methoxy]pyrimidin-5-yl]-1,1,1-trifluoro-propan-2-ol] | 0.308 µM |  |
| CCc1cnc(OCc2cn(-c3cccc(C)c3)nn2)nc1 [Example 245, 5-Ethyl-2-[[1-(m-tolyl)triazol-4-yl]methoxy]pyrimidine] |  | 0.01 µM |
| CN(C)c1ccnc(OCc2cn(-c3ccc(F)c(C(C)(F)F)c3)nn2)n1 [Example 582, 2-[[1-[3-(1,1-Difluoroethyl)-4-fluoro-phenyl]triazol-4-yl]methoxy]-N,N-dimethyl-pyrimidin-4-amine] | 0.028 µM |  |
| Cc1ccnc(OCc2cn(-c3ccc(F)c(C(F)(F)F)c3)nn2)n1 [Example 83, 2-[[1-[4-Fluoro-3-(trifluoromethyl)phenyl]triazol-4-yl]methoxy]-4-methyl-pyrimidine] |  | 0.02 µM |
| Cc1nc(OCc2cn(-c3ccc(F)c(OC(F)F)c3)nn2)ncc1Cl [Example 513, 5-Chloro-2-[[1-[3-(difluoromethoxy)-4-fluoro-phenyl]triazol-4-yl]methoxy]-4-methyl-pyrimidine] | 0.004 µM |  |
| Cc1nc(OCc2cn(-c3ccc(Cl)c(C(C)(F)F)c3)nn2)ncc1F [Example 544, 2-[[1-[4-Chloro-3-(1,1-difluoroethyl)phenyl]triazol-4-yl]methoxy]-5-fluoro-4-methyl-pyrimidine] | 0.015 µM |  |
| CNc1ccnc(OCc2cn(-c3cccc(C(C)(F)F)c3)nn2)n1 [Example 317, 2-[[1-[3-(1,1-Difluoroethyl)phenyl]triazol-4-yl]methoxy]-N-methyl-pyrimidin-4-amine] |  | 0.026 µM |
